Values of other authors in patent publication US12179232B2 (priority 2020, dated 2024).

Test system: coronaviruses
Conditions: 0.05-0.2% benzalkonium chloride or 0.02% chlorhexidine digluconate

| Compound | effectiveness of surface inactivation compared with ethanol, hydrogen peroxide, sodium hypochlorite |
| --- | --- |
| N=C(NCCCCCCNC(=N)NC(=N)Nc1ccc(Cl)cc1)NC(=N)Nc1ccc(Cl)cc1.O=C(O)[C@H](O)[C@@H](O)[C@H](O)[C@H](O)CO.O=C(O)[C@H](O)[C@@H](O)[C@H](O)[C@H](O)CO [chlorhexidine digluconate] | less effective |
| benzalkonium chloride | less effective |
